What was measured:
AMBEL (Ragweed, Common) = test: Postemergence herbicidal evaluation; format: in vivo, Ambrosia artemisifolia; settings: postemergence
Outline: (§1)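 Each compound, dispersed in an acetone/water mix (50/50) carrying 0.5% TWEEN 20, is nozzle-sprayed at 40 psi on approximately two-week-old seedlings at about 0.0156–0.500 kg/ha. Plants are assessed 4–5 weeks afterward on a 0–9 scale relative to control; duplicate tests are averaged.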

[1] = test system: CHEAL (Lambsquarters, Common); test: Postemergence herbicidal evaluation; format: in vivo, Chenopodium album; settings: postemergence
Outline: as §1

[2] = test system: IPOHE (Morningglory, Ivyleaf); test: Postemergence herbicidal evaluation; format: in vivo, Ipomoea hederacea; settings: postemergence
Outline: as §1

ECHCG (Barnyardgrass) = test: Postemergence herbicidal evaluation; format: in vivo, Echinochloa crus-galli; settings: postemergence
Outline: as §1

[3] = test system: GLXMAW (Soybean, Williams); test: Postemergence herbicidal evaluation; format: in vivo, Glycine max, (L.) Merr. cv Williams; settings: postemergence
Outline: as §1

ORYSAT (Rice, Tebonnet) [4] = test: Postemergence herbicidal evaluation; format: in vivo, Oryza sativa, (L.) Tebonnet; settings: postemergence
Outline: as §1

[5] = test system: TRZAWR (Wheat, Winter, cv Riband); test: Postemergence herbicidal evaluation; format: in vivo, Triticum aestivum; settings: postemergence
Outline: as §1

ZEAMX (Corn, Field) [6] = test: Postemergence herbicidal evaluation; format: in vivo, Zea mays; settings: postemergence
Outline: as §1

CASOB (Sicklepod) = test: Preemergence herbicidal evaluation; format: in vivo, Cassia obtusifolia; settings: rated 4-5 weeks after treatment
Outline: (§2)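 In this greenhouse assay, monocot and dicot seeds are planted in soil and treated prior to emergence with an aqueous acetone spray (about 0.0156-0.500 kg/ha). Plants are assessed visually against control on a 0-9 scale after 4-5 weeks.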

[7] = test system: CHEAL (Lambsquarters, Common); test: Preemergence herbicidal evaluation; format: in vivo, Chenopodium album; settings: rated 4-5 weeks after treatment
Outline: as §2

[8] = test system: IPOHE (Morningglory, Ivyleaf); test: Preemergence herbicidal evaluation; format: in vivo, Ipomoea hederacea; settings: rated 4-5 weeks after treatment
Outline: as §2

SETVI (Foxtail, Green) = test: Preemergence herbicidal evaluation; format: in vivo, Setaria viridis; settings: rated 4-5 weeks after treatment
Outline: as §2

ORYSAT (Rice, Tebonnet) [9] = test: Preemergence herbicidal evaluation; format: in vivo, Oryza sativa, (L.) Tebonnet; settings: rated 4-5 weeks after treatment
Outline: as §2

ZEAMX (Corn, Field) [10] = test: Preemergence herbicidal evaluation; format: in vivo, Zea mays; settings: rated 4-5 weeks after treatment
Outline: as §2

[11] = test system: ECHORC (Watergrass (Calif.)); test: Preemergence weed control under flooded paddy conditions; format: in vivo, Echinochloa oryzoides; settings: rated 3-4 weeks after treatment
Outline: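 Seeds or propagules sown in top 0.5 cm of silt loam soil, flooded 1.5 to 3 cm above surface throughout. Compound in 50/50 v/v aqueous/acetone pipetted into flood water at about 0.0313 to 0.500 kg/ha. Visual 0-9 rating versus control after three to four weeks in greenhouse.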

CYPSE (Flatsedge) = test: as above; format: in vivo, Cyperus serotinus; settings: rated 3-4 weeks after treatment
Outline: (§3)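 Herbicidal effect is scored visually on a 0-9 scale against an untreated control, three to four weeks after compounds are pipetted into the flood water (1.5 to 3 cm deep) over seeds planted in silt loam at 0.5 cm depth. Rates: about 0.0313 to 0.500 kg/ha.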

MOOVA (Monochoria) = test: as above; format: in vivo, Monochoria vaginalis; settings: rated 3-4 weeks after treatment
Outline: as §3

CCOC(=O)CN1C(=O)C(CC(=O)NS(=O)(=O)C(C)C)SC1=Nc1cc(-n2c(=O)cc(C(F)(F)F)n(C)c2=O)c(F)cc1Cl (centres unmarked) [Compound 117, Ethyl 2-{{2-chloro-5-[3,6-dihydro-3-methyl-2,6-dioxo-4-(trifluoromethyl)-1(2H)-pyrimidinyl]-4-fluorophenyl}imino}-5-{[(isopropylsulfonyl)-carbamoyl]methyl}-4-oxo-3-thiazolidineacetate]
herbicidal rating AMBEL (AMBEL (Ragweed, Common); rate 0.0158 kg/ha): 4.0 | herbicidal rating AMBEL (AMBEL (Ragweed, Common); rate 0.0315 kg/ha): 5.0 | herbicidal rating AMBEL (AMBEL (Ragweed, Common); rate 0.0630 kg/ha): 7.0 | herbicidal rating CHEAL ([1]; rate 0.0158 kg/ha): 0.0 | herbicidal rating CHEAL ([1]; rate 0.0315 kg/ha): 4.0 | herbicidal rating CHEAL ([1]; rate 0.0630 kg/ha): 9.0 | herbicidal rating IPOHE ([2]; rate 0.0158 kg/ha): 9.0 | herbicidal rating IPOHE ([2]; rate 0.0315 kg/ha): 9.0 | herbicidal rating IPOHE ([2]; rate 0.0630 kg/ha): 9.0 | herbicidal rating ECHCG (ECHCG (Barnyardgrass); rate 0.0158 kg/ha): 1.0 | herbicidal rating ECHCG (ECHCG (Barnyardgrass); rate 0.0315 kg/ha): 2.0 | herbicidal rating ECHCG (ECHCG (Barnyardgrass); rate 0.0630 kg/ha): 1.0 | herbicidal rating GLXMAW ([3]; rate 0.0158 kg/ha): 5.0 | herbicidal rating GLXMAW ([3]; rate 0.0315 kg/ha): 5.0 | herbicidal rating GLXMAW ([3]; rate 0.0630 kg/ha): 6.0 | herbicidal rating ORYSAT (ORYSAT (Rice, Tebonnet) [4]; rate 0.0158 kg/ha): 2.0 | herbicidal rating ORYSAT (ORYSAT (Rice, Tebonnet) [4]; rate 0.0315 kg/ha): 2.0 | herbicidal rating ORYSAT (ORYSAT (Rice, Tebonnet) [4]; rate 0.0630 kg/ha): 3.0 | herbicidal rating TRZAWR ([5]; rate 0.0158 kg/ha): 3.0 | herbicidal rating TRZAWR ([5]; rate 0.0315 kg/ha): 3.5 | herbicidal rating TRZAWR ([5]; rate 0.0630 kg/ha): 3.5 | herbicidal rating ZEAMX (ZEAMX (Corn, Field) [6]; rate 0.0158 kg/ha): 4.5 | herbicidal rating ZEAMX (ZEAMX (Corn, Field) [6]; rate 0.0315 kg/ha): 5.0 | herbicidal rating ZEAMX (ZEAMX (Corn, Field) [6]; rate 0.0630 kg/ha): 5.0 | Preemergence herbicidal rating CASOB (CASOB (Sicklepod); rate 0.0156 kg/ha): 0.0 | Preemergence herbicidal rating CASOB (CASOB (Sicklepod); rate 0.0313 kg/ha): 0.0 | Preemergence herbicidal rating CASOB (CASOB (Sicklepod); rate 0.0625 kg/ha): 0.0 | Preemergence herbicidal rating CASOB (CASOB (Sicklepod); rate 0.1250 kg/ha): 1.0 | Preemergence herbicidal rating CASOB (CASOB (Sicklepod); rate 0.2500 kg/ha): 1.0 | Preemergence herbicidal rating CHEAL ([7]; rate 0.0156 kg/ha): 9.0 | Preemergence herbicidal rating CHEAL ([7]; rate 0.0313 kg/ha): 9.0 | Preemergence herbicidal rating CHEAL ([7]; rate 0.0625 kg/ha): 9.0 | Preemergence herbicidal rating CHEAL ([7]; rate 0.1250 kg/ha): 6.0 | Preemergence herbicidal rating CHEAL ([7]; rate 0.2500 kg/ha): 9.0 | Preemergence herbicidal rating IPOHE ([8]; rate 0.0156 kg/ha): 0.0 | Preemergence herbicidal rating IPOHE ([8]; rate 0.0313 kg/ha): 0.0 | Preemergence herbicidal rating IPOHE ([8]; rate 0.0625 kg/ha): 0.0 | Preemergence herbicidal rating IPOHE ([8]; rate 0.1250 kg/ha): 0.0 | Preemergence herbicidal rating IPOHE ([8]; rate 0.2500 kg/ha): 9.0 | Preemergence herbicidal rating SETVI (SETVI (Foxtail, Green); rate 0.0156 kg/ha): 1.0 | Preemergence herbicidal rating SETVI (SETVI (Foxtail, Green); rate 0.0313 kg/ha): 0.0 | Preemergence herbicidal rating SETVI (SETVI (Foxtail, Green); rate 0.0625 kg/ha): 1.0 | Preemergence herbicidal rating SETVI (SETVI (Foxtail, Green); rate 0.1250 kg/ha): 0.0 | Preemergence herbicidal rating SETVI (SETVI (Foxtail, Green); rate 0.2500 kg/ha): 0.0 | Preemergence herbicidal rating ORYSAT (ORYSAT (Rice, Tebonnet) [9]; rate 0.0156 kg/ha): 0.0 | Preemergence herbicidal rating ORYSAT (ORYSAT (Rice, Tebonnet) [9]; rate 0.0313 kg/ha): 0.0 | Preemergence herbicidal rating ORYSAT (ORYSAT (Rice, Tebonnet) [9]; rate 0.0625 kg/ha): 0.0 | Preemergence herbicidal rating ORYSAT (ORYSAT (Rice, Tebonnet) [9]; rate 0.1250 kg/ha): 0.0 | Preemergence herbicidal rating ORYSAT (ORYSAT (Rice, Tebonnet) [9]; rate 0.2500 kg/ha): 0.0 | Preemergence herbicidal rating ZEAMX (ZEAMX (Corn, Field) [10]; rate 0.0156 kg/ha): 0.0 | Preemergence herbicidal rating ZEAMX (ZEAMX (Corn, Field) [10]; rate 0.0313 kg/ha): 0.0 | Preemergence herbicidal rating ZEAMX (ZEAMX (Corn, Field) [10]; rate 0.0625 kg/ha): 0.0 | Preemergence herbicidal rating ZEAMX (ZEAMX (Corn, Field) [10]; rate 0.1250 kg/ha): 1.0 | Preemergence herbicidal rating ZEAMX (ZEAMX (Corn, Field) [10]; rate 0.2500 kg/ha): 0.0 | herbicidal effect rating, ECHORC ([11]; 0.0313 kg/ha): 0.0 | herbicidal effect rating, ECHORC ([11]; 0.0625 kg/ha): 0.0 | herbicidal effect rating, ECHORC ([11]; 0.1250 kg/ha): 0.0 | herbicidal effect rating, ECHORC ([11]; 0.2500 kg/ha): 0.0 | herbicidal effect rating, CYPSE (CYPSE (Flatsedge); 0.0625 kg/ha): 7.0 | herbicidal effect rating, CYPSE (CYPSE (Flatsedge); 0.1250 kg/ha): 9.0 | herbicidal effect rating, CYPSE (CYPSE (Flatsedge); 0.2500 kg/ha): 9.0 | herbicidal effect rating, MOOVA (MOOVA (Monochoria); 0.0313 kg/ha): 6.0 | herbicidal effect rating, MOOVA (MOOVA (Monochoria); 0.0625 kg/ha): 7.0 | herbicidal effect rating, MOOVA (MOOVA (Monochoria); 0.1250 kg/ha): 9.0 | herbicidal effect rating, MOOVA (MOOVA (Monochoria); 0.2500 kg/ha): 9.0

— patent US20020137929A1, “1 - (3-heterocyclylphenyl) isothiourea, -isourea, -guanidine and -amidine herbicidal agents” (Intellectual Property Department, BASF Aktiengesellschaft, priority 1998, published 2002)
